Reference: the supplement of paper PMC12513837
± gives the standard deviation of the averaged measurements.

Compound: CC(=O)N1CCc2c(c(N3CCCc4cc(-c5cnn(C)c5)c(C(F)F)cc43)nn2C2CCC(CN3CCN(c4ccc5c(c4)C(=O)N(C4CCC(=O)NC4=O)C5=O)CC3)CC2)C1 [CBPD-409]
Assay: AUC of viability dose-response curve (relative to vehicle, 8 doses up to 10 µM) (fraction); higher = less sensitive (more viable); extreme values may be limits of the assay
Protocol: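 PRISM multiplexed pooled barcoded cell line viability screen at the Broad Institute, 887 cancer cell lines treated with CBPD-409 (p300/CBP PROTAC degrader) at 8 concentrations in threefold dilution, top dose 10 µM. The read-out is the area under the dose-response curve of relative viability versus vehicle (n=3). AUC < 0.3 is called strongly sensitive and AUC > 0.8 resistant.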

Row | Test System | AUC of viability dose-response curve
1 | PACADD119_PANCREAS | 0.991
2 | PACADD137_PANCREAS | 0.587
3 | PACADD161_PANCREAS | 0.652
4 | PANC1_PANCREAS | 0.999
5 | PANC0203_PANCREAS | 0.751
6 | PANC0327_PANCREAS | 1
7 | PANC0403_PANCREAS | 0.725
8 | PANC0504_PANCREAS | 0.671
9 | PANC0813_PANCREAS | 0.953
10 | PANC1005_PANCREAS | 1
11 | PATU8902_PANCREAS | 0.689
12 | PATU8988S_PANCREAS | 0.253
13 | PATU8988T_PANCREAS | 0.499
14 | PC3_PROSTATE | 0.763
15 | PC14_LUNG | 0.877
16 | PEA1_OVARY | 0.845
17 | PECAPJ15_UPPER_AERODIGESTIVE_TRACT | 0.917
18 | PECAPJ41CLONED2_UPPER_AERODIGESTIVE_TRACT | 0.662
19 | PECAPJ49_UPPER_AERODIGESTIVE_TRACT | 0.455
20 | PEDS005TSUSP_KIDNEY | 0.309
21 | PF382_HAEMATOPOIETIC_AND_LYMPHOID_TISSUE | 0.566
22 | PFSK1_CENTRAL_NERVOUS_SYSTEM | 0.531
23 | PK1_PANCREAS | 0.685
24 | PK8_PANCREAS | 0.556
25 | PK45H_PANCREAS | 1

Row | Test System | AUC of viability dose-response curve
26 | PK59_PANCREAS | 0.694
27 | PL21_HAEMATOPOIETIC_AND_LYMPHOID_TISSUE | 0.499
28 | PLCPRF5_LIVER | 1
29 | PMFKO14_LARGE_INTESTINE | 0.705
30 | PSN1_PANCREAS | 0.639
31 | QGP1_PANCREAS | 0.661
32 | RBE_BILIARY_TRACT | 1
33 | RCC10RGB_KIDNEY | 1
34 | RCHACV_HAEMATOPOIETIC_AND_LYMPHOID_TISSUE | 0.298
35 | RCK8_HAEMATOPOIETIC_AND_LYMPHOID_TISSUE | 0.633
36 | RCM1_LARGE_INTESTINE | 1
37 | RDES_BONE | 0.484
38 | RD_SOFT_TISSUE | 0.657 ± 0.29
39 | RERFGC1B_STOMACH | 0.993
40 | RERFLCAD1_LUNG | 1
41 | RERFLCAD2_LUNG | 0.946
42 | RERFLCAI_LUNG | 0.913
43 | RERFLCKJ_LUNG | 1
44 | RERFLCMS_LUNG | 0.837
45 | RH4_SOFT_TISSUE | 0.308
46 | RH28_SOFT_TISSUE | 0.625
47 | RH30_SOFT_TISSUE | 0.841 ± 0.22
48 | RH36_SOFT_TISSUE | 0.779
49 | RHJT_SOFT_TISSUE | 0.512
50 | RI1_HAEMATOPOIETIC_AND_LYMPHOID_TISSUE | 0.424

Row | Test System | AUC of viability dose-response curve
51 | RKN_SOFT_TISSUE | 1
52 | RKO_LARGE_INTESTINE | 0.854
53 | RL952_ENDOMETRIUM | 0.996
54 | RL_HAEMATOPOIETIC_AND_LYMPHOID_TISSUE | 0.651
55 | RMGI_OVARY | 0.73
56 | RMSYM_SOFT_TISSUE | 0.394
57 | RMUGS_OVARY | 0.866
58 | RO82W1_THYROID | 1
59 | RPMI7951_SKIN | 1
60 | RPMI8402_HAEMATOPOIETIC_AND_LYMPHOID_TISSUE | 0.266
61 | RT4_URINARY_TRACT | 0.887
62 | RT112_URINARY_TRACT | 0.83
63 | RVH421_SKIN | 0.929
64 | S117_THYROID | 0.612
65 | SAOS2_BONE | 0.466
66 | SBC5_LUNG | 0.687
67 | SCABER_URINARY_TRACT | 0.714
68 | SCC3_HAEMATOPOIETIC_AND_LYMPHOID_TISSUE | 1
69 | SCC9_UPPER_AERODIGESTIVE_TRACT | 0.687
70 | SCC25_UPPER_AERODIGESTIVE_TRACT | 1
71 | SCLC21H_LUNG | 1
72 | SEM_HAEMATOPOIETIC_AND_LYMPHOID_TISSUE | 0.347
73 | SF126_CENTRAL_NERVOUS_SYSTEM | 0.521
74 | SF295_CENTRAL_NERVOUS_SYSTEM | 0.833
75 | SF539_CENTRAL_NERVOUS_SYSTEM | 1

Row | Test System | AUC of viability dose-response curve
76 | SG231_BILIARY_TRACT | 0.46
77 | SH4_SKIN | 0.409
78 | SH10TC_STOMACH | 0.626
79 | SHMAC5_PROSTATE | 1
80 | SHP77_LUNG | 0.641
81 | SIMA_AUTONOMIC_GANGLIA | 0.3 ± 0.073
82 | SISO_CERVIX | 0.987
83 | SJSA1_BONE | 0.673 ± 0.46
84 | SKES1_BONE | 0.286 ± 0.11
85 | SKGII_ENDOMETRIUM | 0.894
86 | SKGI_ENDOMETRIUM | 1
87 | SKGT2_STOMACH | 0.887
88 | SKGT4_OESOPHAGUS | 0.575
89 | SKHEP1_LIVER | 1
90 | SKLMS1_SOFT_TISSUE | 0.829
91 | SKLU1_LUNG | 0.753
92 | SKM1_HAEMATOPOIETIC_AND_LYMPHOID_TISSUE | 1
93 | SKMEL2_SKIN | 1
94 | SKMEL3_SKIN | 0.818
95 | SKMEL5_SKIN | 0.506
96 | SKMEL24_SKIN | 1
97 | SKMEL28_SKIN | 0.575
98 | SKMEL30_SKIN | 0.703
99 | SKMES1_LUNG | 0.848
100 | SKNAS_AUTONOMIC_GANGLIA | 1

Row | Test System | AUC of viability dose-response curve
101 | SKNBE2_AUTONOMIC_GANGLIA | 0.539 ± 0.23
102 | SKNDZ_AUTONOMIC_GANGLIA | 0.267
103 | SKNFI_AUTONOMIC_GANGLIA | 0.854
104 | SKNMC_BONE | 0.996
105 | SKNO1_HAEMATOPOIETIC_AND_LYMPHOID_TISSUE | 0.247
106 | SKN_ENDOMETRIUM | 0.778
107 | SKOV3_OVARY | 1
108 | SKPNDW_BONE | 1
109 | SKUT1_SOFT_TISSUE | 0.609
110 | SMSCTR_SOFT_TISSUE | 0.847
111 | SNB75_CENTRAL_NERVOUS_SYSTEM | 1
112 | SNGM_ENDOMETRIUM | 0.527
113 | SNU1_STOMACH | 1
114 | SNU46_UPPER_AERODIGESTIVE_TRACT | 0.547
115 | SNU61_LARGE_INTESTINE | 0.875
116 | SNU81_LARGE_INTESTINE | 0.767
117 | SNU119_OVARY | 1
118 | SNU182_LIVER | 0.274
119 | SNU201_CENTRAL_NERVOUS_SYSTEM | 0.382
120 | SNU213_PANCREAS | 0.933
121 | SNU216_STOMACH | 1
